How the values were obtained:
[1] = test system: IL-17 production by CD4 T cells; assay: cells; settings: Homo sapiens, 72 h, read-out: Human Th17 Assay, IC50 (μM)
Procedure: The human Th17 assay tests the effect of RORγt modulatory compounds on IL-17 production by CD4 T cells under conditions which favor Th17 differentiation. Total CD4^+ T cells were isolated from the peripheral blood mononuclear cells (PBMC) of healthy donors using a CD4^+ T cell isolation kit II, following the manufacturer's instructions (Miltenyi Biotec). […] 50 μL of compound at titrated concentrations in DMSO were added into each well at final DMSO concentration at 0.2%. Cells were incubated for 1 hour, then 50 μL of Th17 cell differentiation medium was added to each well. The final concentrations of antibodies and cytokines (R&D Systems) in differentiation medium were: 3×10^6/mL anti-CD3/CD28 beads (prepared using human T cell activation/expansion kit, Miltenyi Biotec), 10 μg/mL anti-IL4, 10 μg/mL anti-IFNγ, 10 ng/mL IL1β, 10 ng/mL IL23, 50 ng/mL IL6, 3 ng/mL TGFβ and 20 U/mL IL2. Cells were cultured at 37° C. and 5% CO2 for 3 days. Supernatants were collected and the accumulated IL-17 in culture was measured by using MULTI-SPOT® Cytokine Plate following manufacture's instruction (Meso Scale Discovery). The plate was read using Sector Imager 6000, and IL-17 concentration was extrapolated from the standard curve. The IC50s were determined by GraphPad.

[2] = test system: Th17-dependent learned helplessness; settings: mice; cited from earlier work
obese diabetic mice = settings: cited from earlier work

Q: For CCn1nc(C(=O)NC[C@]2(O)CC[C@@H](S(C)(=O)=O)CC2)c(C)c1-c1cnc(NC(C)(C)CC(F)(F)F)cc1OC(F)F [Example 1, 5-(4-(Difluoromethoxy)-6-((4,4,4-trifluoro-2-methylbutan-2-yl)amino)pyridin-3-yl)-1-ethyl-N-(((1s,4s)-1-hydroxy-4-(methylsulfonyl)cyclohexyl)methyl)-4-methyl-1H-pyrazole-3-carboxamide], which IC50 [1] is on record?
A: Its IC50 is 0.0066 µM.

Q: With CCn1nc(C(=O)NC[C@]2(O)CC[C@@H](S(C)(=O)=O)CC2)c(Cl)c1-c1cnc(NC(C)(C)CC(F)(F)F)cc1OC(F)F [Example 15, 4-Chloro-5-(4-(difluoromethoxy)-6-((4,4,4-trifluoro-2-methylbutan-2-yl)amino)pyridin-3-yl)-1-ethyl-N-(((1s,4s)-1-hydroxy-4-(methylsulfonyl)cyclohexyl)methyl)-1H-pyrazole-3-carboxamide] as the compound, how does the IC50 [1] read?
A: The IC50 was 0.0062 µM.

Q: Which IC50 [1] does the source give for CCn1nc(C(=O)NC[C@]2(O)CC[C@@H](S(C)(=O)=O)CC2)c(Cl)c1-c1cnc(NC(C)(C)CC(F)(F)F)cc1C(C)C [Example 16, 4-Chloro-1-ethyl-N-(((1s,4s)-1-hydroxy-4-(methylsulfonyl)cyclohexyl)methyl)-5-(4-isopropyl-6-((4,4,4-trifluoro-2-methylbutan-2-yl)amino)pyridin-3-yl)-1H-pyrazole-3-carboxamide] here?
A: The IC50 was 0.017 µM.

Q: With CCc1cc(NC(C)(C)CC(F)(F)F)ncc1-c1c(Cl)c(C(=O)NC[C@]2(O)CC[C@@H](S(C)(=O)=O)CC2)nn1CC [Example 18, 4-Chloro-1-ethyl-5-(4-ethyl-6-((4,4,4-trifluoro-2-methylbutan-2-yl)amino)pyridin-3-yl)-N-(((1s,4s)-1-hydroxy-4-(methylsulfonyl)cyclohexyl)methyl)-1H-pyrazole-3-carboxamide] as the compound, how does the IC50 [1] read?
A: The IC50 was 0.0041 µM.

Q: With CCn1nc(C(=O)NC[C@]2(O)CC[C@@H](S(C)(=O)=O)CC2)c(Cl)c1-c1cnc(NC(C)(C)CC(F)(F)F)cc1OC [Example 79, 4-Chloro-1-ethyl-N-(((1s,4s)-1-hydroxy-4-(methylsulfonyl)cyclohexyl)methyl)-5-(4-methoxy-6-((4,4,4-trifluoro-2-methylbutan-2-yl)amino)pyridin-3-yl)-1H-pyrazole-3-carboxamide] as the compound, how does the IC50 [1] read?
A: Its IC50 is 0.013 µM.

Q: Which IC50 [1] does the source give for CCn1nc(C(=O)NC[C@]2(O)CC[C@@H](S(C)(=O)=O)CC2)c(Cl)c1-c1cnc(NC(C)(C)CC(F)(F)F)cc1C(F)F [Example 97, 4-Chloro-5-(4-(difluoromethyl)-6-((4,4,4-trifluoro-2-methylbutan-2-yl)amino)pyridin-3-yl)-1-ethyl-N-(((1s,4s)-1-hydroxy-4-(methylsulfonyl)cyclohexyl)methyl)-1H-pyrazole-3-carboxamide] here?
A: The IC50 was 0.0033 µM.

Q: For CCn1nc(C(=O)NC[C@H]2CC[C@H](S(C)(=O)=O)CC2)c(Cl)c1-c1cnc(N[C@H](C)C(F)(F)F)cc1OC [Example 98, 4-Chloro-1-ethyl-5-(4-methoxy-6-(((R)-1,1,1-trifluoropropan-2-yl)amino)pyridin-3-yl)-N-(((1r,4R)-4-(methylsulfonyl)cyclohexyl)methyl)-1H-pyrazole-3-carboxamide], which IC50 [1] is on record?
A: Its IC50 is 0.14 µM.

Q: With CC(=O)Nc1nc(C)c(S(=O)(=O)Nc2ccc(C(O)(C(F)(F)F)C(F)(F)F)cc2)s1 [SR1001] as the compound, how does the Th17-dependent learned helplessness [2] read?
A: The Th17-dependent learned helplessness was “reduced Th17-dependent learned helplessness”.

Q: For CC(=O)N1CCN(Cc2ccc(-c3ccc(C(O)(C(F)(F)F)C(F)(F)F)cc3)cc2)CC1 [SR1555], which body weight (obese diabetic mice) is on record?
A: Its body weight is “reduced body weight”.

Q: What about the fat mass (obese diabetic mice) of the same compound?
A: Its fat mass is “significant reduction in fat mass”.

Q: And the food intake (obese diabetic mice)?
A: The food intake was “modest reduction in food intake”.

Q: What about the insulin sensitivity (obese diabetic mice) of the same compound?
A: Its insulin sensitivity is “improved insulin sensitivity”.

From patent US10975057B2, “6-aminopyridin-3-yl pyrazoles as modulators of RORgT” (Janssen Pharmaceutica NV, priority 2018, dated 2021)
